Data published in patent US9884874B2, “Bromodomain-inhibiting compounds and pharmaceutical composition comprising same for preventing or treating a cancer” (KAINOS MEDICINE, INC., priority 2014, dated 2018).

Legend:
[1] = system: MOLT-4 (acute lymphoblastic leukemia); experiment: Anti-proliferative activity, MOLT-4; type: cell-based; settings: Homo sapiens, read-out: Cell proliferation, IC50
[2] = Body weight change in MV4-11 xenograft mice; type: in vivo, NOD/SCID mice; settings: 50 and 100 mpk, PO
Method: A total of 48 NOD/SCID female mice of 6-8 weeks age and weighing approximately 18 to 22 g, purchased from HFK (Beijing HFK Bio-Technology Co. Ltd.), were used for tumor inoculation.
Each mouse was inoculated subcutaneously at the right flank with MV4-11 tumor cells (1×10^7 cells) in mixture of 100 ul PBS and 100 ul of Matrigel™ for tumor development. A total of […] mice were used for each group. The amounts of treated compounds are represented in milligram (mg) of compound per kilogram (kg) of animal body weight (mg/kg, mpk). Administration route of the test compound was PO (oral) injection. Three groups, i.e., vehicle group (Control group), 50 mpk group (treatment at 50 mpk of compound 1 through PO injection) and 100 mpk group (treatment at 100 mpk of compound 1 through PO injection) of mice were used. The overall administration schedule was 2 cycles of treatment for 5 days (5 d ON), followed by 2 days of non-treatment (2 d OFF).

[3] = system: MOLM13 (acute myeloid Leukemia); experiment: Anti-proliferative activity, MOLM13; type: cell-based; settings: Homo sapiens, MOLM-13, read-out: Cell proliferation, IC50
[4] = Mouse liver microsomal stability/clearance; type: in vitro ADME; settings: mouse liver microsomes; second value of Human/Mouse cell; read-out: Liver microsomal clearance (Mouse)
Method: Human and mouse liver microsomal clearance assays were carried out in CROWN Biosciences (Taicang, China). The human liver microsomes (Cat No. X008067, Lot No. KQB) and mouse liver microsomes (Cat No. M1000, Lot No. 1210302) were purchased from Celsis and Xenotech, respectively.
5 μL of test compound stock solution was diluted with 495 μL of 1:1 Methanol/Water (final concentration: 100 μM, 50% MeOH) and combined with 534 μL of the respective liver microsome solution (final concentration: 1.111 μM, 0.555% MeOH). The final concentration of the liver microsome solution was 0.7 mg protein/mL.
Incubations of the liver microsome solutions were performed in a 96 well plate at 37° C. 90 μL of the liver microsome solutions were added to Blank, and 90 μL of working solution of the test compound was added to all plates except the Blank.
All plates thus obtained were warmed in water bath at 37° C. for 10 min, and 10 μL of NADPH co-factor solution comprising 42 mg of β-nicotinamide adenine dinucleotide phosphate (Sigma Cat. No. N0505 Lot 020M7009V), 84 mg of isocitric acid (Sigma Cat. No. 11252 Lot 119K1099) and 0.478 mL of isocitric dehydrogenase (Sigma Cat. No. 12002 Lot 086K7055, 15 units/mg protein, warmed in water bath at 37° C. for 5 min was added to the plates. The resulting plates were incubated at 37° C. in the following order: T60 (The test compounds were incubated with the liver microsomal solution and NADPH for 60 min at 37° C.), T30 (such as for 30 min.), and T10 (such as for 10 min.). 300 μL of a cold (4° C.) stop solution (acetonitrile (ACN) including 500 nM of tolbutamide as internal standard) and 10 μL of NADPH co-factor solution to starting plate (T0: 100% of the parent compound without any reaction) were added to the plates. The reaction was stopped by adding 300 μL of the cold (4° C.) stop solution to the other plates in the following order: T10 first, then T30 and T60.
The samples were centrifuged at 4,000 rpm for 20 min and transferred to Bioanalytical Services for liquid chromatography-mass spectrometry (LC-MS)/MS (Waters UPLC/API 4000, 10 μL injection) analysis.

[5] = system: A375 (malignant melanoma); experiment: Anti-proliferative activity, A375; type: cell-based; settings: Homo sapiens, A-375, read-out: Cell proliferation, IC50
[6] = system: RS4;11 (acute lymphoblastic leukemia); experiment: Anti-proliferative activity, RS4;11; type: cell-based; settings: Homo sapiens, read-out: Cell proliferation, IC50

Structure (SMILES): COc1ccc2c(c1)C(c1ccc(Cl)cc1)=N[C@@H](COS(C)(=O)=O)c1nnc(C)n1-2 [Compound 1, (R)-(6-(4-chlorophenyl)-8-methoxy-1-methyl-4H-benzo[f]-[1,2,4]triazolo[4,3-a][1,4]diazepin-4-yl)methyl methanesulfonate]
- IC50 [1]: 2630 nM
- BW change (%) (in words) [2]: very low
- IC50 [3]: 1520 nM
- microsomal CLint at 1 µM [4]: 4.7 µL/min/mg
- IC50 [5]: 5570 nM
- IC50 [6]: 3140 nM
